Patent publication US20260365670A1, “EGFR INHIBITORS AND USES THEREOF” (DIZAL (JIANGSU) PHARMACEUTICAL CO., LTD., priority 2022, published 2026)
Where two headings read alike, the source gives them in different places.

How the values were obtained:
EGFR Exon19Del/T790M = biological target: T1, EGFR Exon19Del/T790M (Homo sapiens, UniProt P00533, DEL746-750/T790M); assay: Inhibition of EGFR Exon19Del/T790M biochemical enzymatic activity (HTRF); conditions: EGFR Del19-T790M, 1 mM ATP, 1 h, room temperature, read-out: IC50 (nM) @Del19-T790M
T1 construct: purchased Carna Bio
Summary of the method: (§1)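 Phosphorylation of TK Substrate-biotin (1 μM) was measured at 1 mM ATP over a 1 h room-temperature incubation with serially varied compound. Detection was by HTRF ratio and analysis by 4PL fit to IC50.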

EGFR (C797S L858R) = biological target: T2, EGFR (C797S L858R) (Homo sapiens, UniProt P00533, C797S/L858R); assay: Inhibition of EGFR (C797S L858R) biochemical enzymatic activity (HTRF); conditions: EGFR L858-C797S, 1 mM ATP, 1 h, room temperature, read-out: IC50 (nM) @L858-C797S
T2 construct: purchased signalchem
Summary of the method: as §1

[1] = system: Ba/F3 cells expressing EGFR mutations; assay: Cell proliferation assay, Ba/F3 cells expressing EGFR mutations (CellTiter-Glo, 72 hours); assay type: cell-based; conditions: Mus musculus, BaF3, 72 h, CellTiter-Glo
Summary of the method: (§2)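 In RPMI1640 medium (PC-9 with 10% FBS), each cell line was seeded at its own density: Ba/F3 5000 and PC-9 500 per well. A compound series was added the next day, with a time-zero viability plate read in parallel. Percent proliferation was subtracted for G0 and referenced to DMSO, and GI50 was derived by curve fitting.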

EGFR (d746-750 C797S) = biological target: T3, EGFR (d746-750 C797S) (Homo sapiens, UniProt P00533, C797S/DEL746-750); assay: Inhibition of EGFR (d746-750 C797S) biochemical enzymatic activity (HTRF); conditions: EGFR Del19-C797S, 1 mM ATP, 1 h, room temperature, read-out: IC50 (nM) @Del19-C797S
T3 construct: purchased signalchem
Summary of the method: as §1

PC-9 = assay: Cell proliferation assay, PC-9 cells (CellTiter-Glo, 72 hours); assay type: cell-based; conditions: Homo sapiens, PC-9, 72 h, PC9 cells, CellTiter-Glo, read-out: PC9 GI50
Summary of the method: as §2

EGFR[T790M/C797S/L858R] = biological target: T4, EGFR[T790M/C797S/L858R] (Homo sapiens, UniProt P00533, C797S/L858R/T790M); assay: Inhibition of EGFR[T790M/C797S/L858R] biochemical enzymatic activity (HTRF); conditions: EGFR T790M-C797S-L858R, 1 mM ATP, 1 h, room temperature, read-out: IC50 (nM) @T790M- C797S - L858R
T4 construct: purchased Carna Bio
Summary of the method: as §1

EGFR L858R = biological target: T5, EGFR L858R (Homo sapiens, UniProt P00533, L858R); assay: Inhibition of EGFR L858R biochemical enzymatic activity (HTRF); conditions: 1 mM ATP, 1 h, room temperature, read-out: IC50 (nM) @L858R
T5 construct: purchased Carna Bio
Summary of the method: as §1

[2] = biological target: T6, EGFR[T790M/C797S/d746-750] (Homo sapiens, UniProt P00533, C797S/DEL746-750/T790M); assay: Inhibition of EGFR[T790M/C797S/d746-750] biochemical enzymatic activity (HTRF); conditions: EGFR T790M-C797S-Del19, 1 mM ATP, 1 h, room temperature, read-out: IC50 (nM) @T790M - C797S - Del19
T6 construct: purchased Carna Bio
Summary of the method: as §1

EGFR Exon19Del = biological target: T7, EGFR Exon19Del (Homo sapiens, UniProt P00533, DEL746-750); assay: Inhibition of EGFR Exon19Del biochemical enzymatic activity (HTRF); conditions: EGFR Del19, 1 mM ATP, 1 h, room temperature, read-out: IC50 @Del19
T7 construct: purchased Carna Bio
Summary of the method: as §1

A-431 = assay: Cell proliferation GI50, A-431 cells (Table 6); assay type: cell-based; conditions: Homo sapiens, A-431, A-431 cells
EGFR wild type = biological target: T8, EGFR wild type (Homo sapiens, UniProt P00533); assay: Inhibition of EGFR wild type biochemical enzymatic activity (HTRF); conditions: EGFR WT, 1 mM ATP, 1 h, room temperature, read-out: IC50 (nM) @WT
T8 construct: purchased Carna Bio
Summary of the method: as §1

EGFR L858R/T790M = biological target: T9, EGFR L858R/T790M (Homo sapiens, UniProt P00533, L858R/T790M); assay: Inhibition of EGFR L858R/T790M biochemical enzymatic activity (HTRF); conditions: EGFR L858R-T790M, 1 mM ATP, 1 h, room temperature, read-out: IC50 (nM) @L858R-T790M
T9 construct: purchased Carna Bio
Summary of the method: as §1

[3] = BaF3 cells, EGFR DEL19-C797S, read-out: DEL19-C797S/BaF3 GI50
[4] = BaF3 cells, EGFR DEL19-T790-C797S, read-out: DEL19-T790-C797S/BaF3 GI50
[5] = BaF3 cells, EGFR L858R, read-out: L858R/BaF3 GI50
[6] = BaF3 cells, EGFR L858R-C797S, read-out: L858R-C797S/BaF3 GI50
[7] = BaF3 cells, EGFR L858R-T790-C797S, read-out: L858R-T790-C797S/BaF3 GI50
[8] = BaF3 cells, EGFR L858R-T790M, read-out: L858R-T790M/BaF3 GI50
[9] = EGFR DEL19-T790M, read-out: DEL19-T790M GI50

T1 sequence (P00533 with tags, fused parts or gaps DEL746-750/T790M limits assumed): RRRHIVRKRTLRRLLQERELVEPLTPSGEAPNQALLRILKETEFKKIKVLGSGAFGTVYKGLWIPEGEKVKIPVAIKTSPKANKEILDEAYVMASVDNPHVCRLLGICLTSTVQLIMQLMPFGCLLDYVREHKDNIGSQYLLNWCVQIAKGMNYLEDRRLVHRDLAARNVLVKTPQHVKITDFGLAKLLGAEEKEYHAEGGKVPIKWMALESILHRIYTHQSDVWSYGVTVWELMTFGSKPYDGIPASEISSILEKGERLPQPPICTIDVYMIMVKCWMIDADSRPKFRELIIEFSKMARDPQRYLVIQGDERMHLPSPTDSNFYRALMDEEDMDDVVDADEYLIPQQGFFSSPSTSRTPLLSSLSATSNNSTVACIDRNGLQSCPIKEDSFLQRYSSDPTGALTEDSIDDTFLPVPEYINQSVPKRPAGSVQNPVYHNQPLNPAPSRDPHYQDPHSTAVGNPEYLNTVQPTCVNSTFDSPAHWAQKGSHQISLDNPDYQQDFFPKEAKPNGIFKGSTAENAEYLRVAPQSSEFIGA
T3 sequence (P00533 with tags, fused parts or gaps DEL746-750/C797S limits assumed): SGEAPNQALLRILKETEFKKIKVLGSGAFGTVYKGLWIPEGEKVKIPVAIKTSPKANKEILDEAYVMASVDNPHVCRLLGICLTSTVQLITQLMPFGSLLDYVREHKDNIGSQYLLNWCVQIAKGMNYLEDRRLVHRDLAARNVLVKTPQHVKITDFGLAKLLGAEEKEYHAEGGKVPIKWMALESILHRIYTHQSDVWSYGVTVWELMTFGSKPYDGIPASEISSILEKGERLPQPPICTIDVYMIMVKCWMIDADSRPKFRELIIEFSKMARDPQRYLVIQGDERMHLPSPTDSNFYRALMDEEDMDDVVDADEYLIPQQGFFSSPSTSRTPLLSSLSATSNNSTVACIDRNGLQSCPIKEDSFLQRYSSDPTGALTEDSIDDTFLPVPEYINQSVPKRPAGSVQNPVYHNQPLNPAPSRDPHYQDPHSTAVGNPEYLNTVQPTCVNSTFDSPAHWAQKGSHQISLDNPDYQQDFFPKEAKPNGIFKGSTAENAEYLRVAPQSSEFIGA
T7 sequence (P00533 with tags, fused parts or gaps DEL746-750 limits assumed): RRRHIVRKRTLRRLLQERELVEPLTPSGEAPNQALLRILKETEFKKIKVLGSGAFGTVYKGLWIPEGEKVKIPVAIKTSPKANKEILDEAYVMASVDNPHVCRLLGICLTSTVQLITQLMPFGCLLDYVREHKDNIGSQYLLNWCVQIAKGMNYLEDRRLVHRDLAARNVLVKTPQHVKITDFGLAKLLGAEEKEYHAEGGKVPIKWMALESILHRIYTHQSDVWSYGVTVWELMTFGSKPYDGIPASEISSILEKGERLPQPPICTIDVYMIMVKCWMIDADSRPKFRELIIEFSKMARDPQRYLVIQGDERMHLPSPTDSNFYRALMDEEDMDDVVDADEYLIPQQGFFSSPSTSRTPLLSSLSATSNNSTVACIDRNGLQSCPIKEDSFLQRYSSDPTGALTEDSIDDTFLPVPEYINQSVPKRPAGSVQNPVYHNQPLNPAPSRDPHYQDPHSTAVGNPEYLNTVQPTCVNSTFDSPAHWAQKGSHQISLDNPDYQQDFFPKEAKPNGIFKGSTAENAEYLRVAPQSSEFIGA
T4 sequence (P00533 25-1210 T790M/C797S/L858R): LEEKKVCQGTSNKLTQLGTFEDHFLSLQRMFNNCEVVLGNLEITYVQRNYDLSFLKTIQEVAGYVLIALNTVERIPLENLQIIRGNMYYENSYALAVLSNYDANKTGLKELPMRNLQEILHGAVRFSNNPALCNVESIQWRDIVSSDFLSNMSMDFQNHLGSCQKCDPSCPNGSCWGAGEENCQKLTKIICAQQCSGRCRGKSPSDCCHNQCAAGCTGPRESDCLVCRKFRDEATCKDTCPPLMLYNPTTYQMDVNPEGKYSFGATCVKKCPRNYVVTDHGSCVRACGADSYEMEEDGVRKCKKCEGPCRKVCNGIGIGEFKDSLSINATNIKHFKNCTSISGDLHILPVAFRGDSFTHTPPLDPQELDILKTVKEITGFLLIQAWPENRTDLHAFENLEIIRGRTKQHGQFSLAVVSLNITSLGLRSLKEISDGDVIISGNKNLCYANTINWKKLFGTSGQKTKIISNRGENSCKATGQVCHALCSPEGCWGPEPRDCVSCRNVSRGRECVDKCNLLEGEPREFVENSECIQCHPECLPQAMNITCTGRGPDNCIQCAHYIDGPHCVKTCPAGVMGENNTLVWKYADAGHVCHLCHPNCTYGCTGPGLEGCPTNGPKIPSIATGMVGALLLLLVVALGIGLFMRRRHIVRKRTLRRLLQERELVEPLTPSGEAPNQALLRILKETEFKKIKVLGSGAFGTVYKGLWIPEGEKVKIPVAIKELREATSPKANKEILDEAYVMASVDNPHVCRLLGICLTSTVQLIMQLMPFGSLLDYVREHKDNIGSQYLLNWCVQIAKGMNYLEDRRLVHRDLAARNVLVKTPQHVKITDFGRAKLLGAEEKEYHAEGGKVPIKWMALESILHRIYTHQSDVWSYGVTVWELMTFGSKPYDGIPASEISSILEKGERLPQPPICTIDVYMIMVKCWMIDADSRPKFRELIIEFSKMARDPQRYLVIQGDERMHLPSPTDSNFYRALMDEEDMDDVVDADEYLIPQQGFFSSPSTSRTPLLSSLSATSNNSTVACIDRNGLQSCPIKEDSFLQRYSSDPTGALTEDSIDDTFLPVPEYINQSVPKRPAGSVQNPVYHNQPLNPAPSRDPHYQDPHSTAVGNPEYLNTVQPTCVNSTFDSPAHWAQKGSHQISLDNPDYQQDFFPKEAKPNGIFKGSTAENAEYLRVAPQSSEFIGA
T8 sequence (P00533 25-1210): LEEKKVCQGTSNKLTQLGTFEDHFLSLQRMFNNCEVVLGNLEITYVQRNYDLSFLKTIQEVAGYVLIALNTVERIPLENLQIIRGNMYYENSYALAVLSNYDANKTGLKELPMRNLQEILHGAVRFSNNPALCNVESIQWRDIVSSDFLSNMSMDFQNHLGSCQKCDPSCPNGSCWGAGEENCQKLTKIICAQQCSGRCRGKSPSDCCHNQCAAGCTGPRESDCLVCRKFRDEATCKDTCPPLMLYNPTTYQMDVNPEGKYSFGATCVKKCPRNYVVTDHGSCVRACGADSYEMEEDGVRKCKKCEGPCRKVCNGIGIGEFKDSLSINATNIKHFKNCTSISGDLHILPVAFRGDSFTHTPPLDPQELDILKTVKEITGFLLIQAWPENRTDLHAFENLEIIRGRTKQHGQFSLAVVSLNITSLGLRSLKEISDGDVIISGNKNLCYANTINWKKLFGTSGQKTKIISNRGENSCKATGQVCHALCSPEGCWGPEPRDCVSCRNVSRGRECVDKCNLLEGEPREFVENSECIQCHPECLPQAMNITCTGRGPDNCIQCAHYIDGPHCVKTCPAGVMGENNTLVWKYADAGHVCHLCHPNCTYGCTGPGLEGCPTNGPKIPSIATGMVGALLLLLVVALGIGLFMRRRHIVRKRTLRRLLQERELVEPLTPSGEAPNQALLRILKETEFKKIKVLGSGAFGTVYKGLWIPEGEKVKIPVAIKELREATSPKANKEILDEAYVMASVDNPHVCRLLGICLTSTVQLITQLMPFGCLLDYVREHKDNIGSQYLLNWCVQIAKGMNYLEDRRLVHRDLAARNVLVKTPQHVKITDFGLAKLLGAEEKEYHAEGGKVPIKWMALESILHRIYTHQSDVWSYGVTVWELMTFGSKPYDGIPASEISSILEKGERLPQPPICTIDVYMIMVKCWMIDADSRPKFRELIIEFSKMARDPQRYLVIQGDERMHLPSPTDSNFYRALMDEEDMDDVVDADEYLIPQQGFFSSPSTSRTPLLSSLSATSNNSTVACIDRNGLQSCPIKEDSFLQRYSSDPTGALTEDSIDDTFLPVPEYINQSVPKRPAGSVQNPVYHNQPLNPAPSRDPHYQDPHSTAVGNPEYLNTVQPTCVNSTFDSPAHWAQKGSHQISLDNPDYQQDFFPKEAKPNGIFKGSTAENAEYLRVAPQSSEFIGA
T6 sequence (P00533 with tags, fused parts or gaps DEL746-750/T790M/C797S limits assumed): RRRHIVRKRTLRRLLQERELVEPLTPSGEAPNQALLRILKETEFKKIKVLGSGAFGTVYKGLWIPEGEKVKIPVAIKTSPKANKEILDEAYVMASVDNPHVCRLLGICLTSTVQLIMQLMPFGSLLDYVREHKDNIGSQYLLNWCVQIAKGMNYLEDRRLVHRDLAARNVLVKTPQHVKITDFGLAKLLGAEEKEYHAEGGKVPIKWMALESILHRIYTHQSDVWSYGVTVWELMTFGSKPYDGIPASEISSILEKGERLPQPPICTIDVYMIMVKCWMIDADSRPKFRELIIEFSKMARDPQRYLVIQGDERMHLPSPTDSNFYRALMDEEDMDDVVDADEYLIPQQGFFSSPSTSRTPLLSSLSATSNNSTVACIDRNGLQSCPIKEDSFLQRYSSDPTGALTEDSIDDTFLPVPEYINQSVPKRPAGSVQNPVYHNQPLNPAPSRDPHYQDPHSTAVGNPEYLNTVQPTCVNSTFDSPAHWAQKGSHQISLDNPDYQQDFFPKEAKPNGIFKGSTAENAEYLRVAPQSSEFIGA

SMILES | IC50 (EGFR Exon19Del/T790M) | IC50 (EGFR (C797S L858R)) | GI50 [1, 3] | GI50 [1, 4] | GI50 [1, 5] | GI50 [1, 6] | GI50 [1, 7] | GI50 [1, 8] | GI50 [1, 9] | IC50 (EGFR (d746-750 C797S)) | GI50 (PC-9) | IC50 (EGFR[T790M/C797S/L858R]) | IC50 (EGFR L858R) | IC50 [2] | IC50 (EGFR Exon19Del) | GI50 (A-431) | IC50 (EGFR wild type) | IC50 (EGFR L858R/T790M)
C[C@@H]1CCCOc2c(cnn2C2CC2)-c2cc(cn(C)c2=O)C(=O)Nc2nc3ccc(N4CCN(C)CC4)cc3n2C1 [Example A22, (11R)-5-Cyclopropyl-11,26-dimethyl-16-(4-methylpiperazin-1-yl)-7-oxa-4,5,13,20,22,26-hexaazapentacyclo[22.3.1.0^{2,6}.0^{13,21}.0^{14,19}]octacosa-1(28),2(6),3,14,16,18,20,24-octaene-23,27-dione] | 6.2 nM | 25 nM | 9.3 nM | 11 nM | 30 nM | 22 nM | 9.6 nM | 51 nM | 20 nM | 6.5 nM | 87 nM | 5.8 nM | 86 nM | 6.5 nM | 9.1 nM | 2290 nM | 1200 nM | 6.3 nM
C[C@@H]1CCCOc2c(cnn2C)-c2cc(cn(C)c2=O)C(=O)Nc2nc3ccc(N4CCNCC4)c(Cl)c3n2C1 [Example A23, (11R)-15-chloro-5,11,26-trimethyl-16-(piperazin-1-yl)-7-oxa-4,5,13,20,22,26-hexaazapentacyclo[22.3.1.0^{2,6}.0^{13,21}.0^{14,19}]octacosa-1(28),2(6),3,14,16,18,20,24-octaene-23,27-dione] | 3 nM | 61 nM | 4 nM | 11 nM | 104 nM | 32 nM | 12 nM | 151 nM | 10 nM | 3 nM | 208 nM | 2.7 nM | 207 nM | 2.7 nM | 4.7 nM | 2820 nM | > 5000 nM | 12 nM
C[C@@H]1CCCOc2c(cnn2C)-c2cc(cn(C)c2=O)C(=O)Nc2nc3ccc(N4CCN(C)CC4)cc3n2C1 [Example A25, (11R)-5,11,26-trimethyl-16-(4-methylpiperazin-1-yl)-7-oxa-4,5,13,20,22,26-hexaazapentacyclo[22.3.1.0^{2,6}.0^{13,21}.0^{14,19}]octacosa-1(28),2(6),3,14,16,18,20,24-octaene-23,27-dione] | 1.6 nM | 6 nM | 1.4 nM | 13 nM | 2.4 nM | 9.3 nM | 5.6 nM | 16 nM | 9.2 nM | 1 nM | 12 nM | 1.6 nM | 24 nM | 1.6 nM | 1.6 nM | 486 nM | 323 nM | 2 nM
C[C@@H]1CCCOc2c(cnn2C)-c2cc(cn(C)c2=O)C(=O)Nc2nc3ccc(N4CCOCC4)cc3n2C1 [Example A26, (11R) 5,11,26-trimethyl-16-(morpholin-4-yl)-7-oxa-4,5,13,20,22,26-hexaazapentacyclo[22.3.1.0^{2,6}.0^{13,21}.0^{14,19}]octacosa-1(28),2(6),3,14,16,18,20,24-octaene-23,27-dione] | 5 nM | 33 nM | 2.1 nM | 16 nM | 18 nM | 4.6 nM | 12 nM | 28 nM | 18 nM | 2.9 nM | 18 nM | 16 nM | 68 nM | 5.6 nM | 8 nM | 405 nM | 1090 nM | 19 nM
C[C@@H]1CCCOc2c(cnn2C)-c2cc(cn(C)c2=O)C(=O)Nc2nc3ccc(N4CCC(N(C)C)C4)cc3n2C1 (stereo partly drawn) [Example A27, (11R)-16-[3-(Dimethylamino)pyrrolidin-1-yl]-5,11,26-trimethyl-7-oxa-4,5,13,20,22,26-hexaazapentacyclo[22.3.1.0^{2,6}.0^{13,21}.0^{14,19}]octacosa-1(28),2(6),3,14,16,18,20,24-octaene-23,27-dione] | 15 nM | 21 nM | 1.2 nM | 1.9 nM | 3 nM | 7.1 nM | 2.2 nM | 6.8 nM | 3.5 nM | 5.5 nM | 21 nM | 20 nM | 25 nM | 13 nM | 6.1 nM | 453 nM | 290 nM | 26 nM
C[C@@H]1CCCOc2c(cnn2C)-c2cc(cn(C)c2=O)C(=O)Nc2nc3ccc(N4CCC(N5CCOCC5)C4)cc3n2C1 (stereo partly drawn) [Example A28] | 22 nM | 93 nM | 2.4 nM | 4.7 nM | 4.5 nM | 16 nM | 3.6 nM | 9.4 nM | 6.7 nM | 14 nM | 38 nM | 100 nM | 174 nM | 21 nM | 21 nM | 452 nM | 4140 nM | 137 nM
C[C@@H]1CCCOc2c(cnn2C)-c2cc(cn(C)c2=O)C(=O)Nc2nc3ccc(N4CCC(N5CCN(C)CC5)CC4)cc3n2C1 [Example A29] | 7.6 nM | 7.9 nM | 0.41 nM | 1 nM | 2.1 nM | 2.8 nM | 0.78 nM | 2.5 nM | 1.9 nM | 2.1 nM | 7.1 nM | 8.9 nM | 14 nM | 8.2 nM | 3.8 nM | 247 nM | 109 nM | 15 nM
C[C@@H]1CCCOc2c(cnn2C)-c2cc(cn(C)c2=O)C(=O)Nc2nc3ccc(N4CCC(N5CCN(C)CC5)C4)cc3n2C1 (stereo partly drawn) [Example A33] | 3.4 nM | 6 nM | 0.4 nM | 0.58 nM | 1.1 nM | 2.2 nM | 2.3 nM | 3.4 nM | 3.2 nM | 2.1 nM | 4.8 nM | 5.2 nM | 7.3 nM | 3.1 nM | 3.1 nM | 366 nM | 22 nM | 5.8 nM
C[C@@H]1CCCOc2c(cnn2C)-c2cc(cn(C)c2=O)C(=O)Nc2nc3ccc(N4CCC5(CCN(C)C5)CC4)cc3n2C1 [Example A35] | 1.9 nM | 1.8 nM | 0.38 nM | 0.5 nM | 0.53 nM | 1.7 nM | 1 nM | 3.4 nM | 1.6 nM | 0.84 nM | 3.7 nM | 2 nM | 1.5 nM | 2 nM | 1.1 nM | 215 nM | 2.7 nM | 2.2 nM
